# Data as given in article PMC10413841, “Exploration of Thiourea-Based Scaffolds for the Construction of Bacterial Ureases Inhibitors” (ACS Omega, 2023).
# Where “and” joins values, the source holds several entries; their conditions need not be identical. Equal values may be shown once. Read-outs that look alike come from different tables or passages of the source.
# Legend:
# [1] = molecular target: T1, native S. pasteurii CCM 2056 urease (Sporosarcina pasteurii, UniProt P41020); experiment: Inhibition of purified native urease, indophenol (Berthelot) ammonia assay; assay type: biochemical; settings: for Ki: purified native enzyme, EI dissociation constant from Lineweaver-Burke plots, urea up to 30 mM, 3 mM phosphate buffer; for α quantifier between ESI dissociation constant Ki* and EI dissociation constant Ki / type (mode) of inhibition: purified S. pasteurii urease
# T1 construct: The S. pasteurii CCM 2056 cells were used as the source of a native enzyme; endogenous in cells; host or cells: S. pasteurii CCM 2056 culture; endogenous enzyme purified in house from the sonicated cell extract by five-step chromatography
# Description: The kinetic properties of the compounds as potential urease inhibitors were evaluated against native enzyme purified from S. pasteurii CCM 2056 culture. Residual enzyme activity was expressed as ammonia release from urea followed quantitively using the Berthelot reaction. All of the studied structures were reversibly inhibitory, with dissociation constants ranging from submicromolar to moderate micromolar concentrations (Table 1). The α quantifier between the enzyme-substrate-inhibitor complex (ESI) dissociation constant Ki* and the EI dissociation constant Ki [drawing 1] was calculated to determine the influence of substrate binding on the stability of the EI complex. […] For modeled compounds 19, 16, and 29, the values of α were 152.01, 38.04, and 14.52, respectively. […] For comparison, the α value of compound 52 was 1.37.
# The S. pasteurii CCM 2056 cells were used as the source of a native enzyme. The culture medium was made of 20 g/L yeast extract. One day after the inoculation, the medium was further supplemented with 1 mM NiCl2 and 1% urea. After 2 more days of growth, the cells were centrifuged and disintegrated via sonication. Enzyme purification from the cell extract was conducted using a five-step chromatographic method as previously reported.[50]
# Inhibition of the purified urease was measured using the indophenol assay for ammonia concentration.[65] The kinetic assays in 3 mM phosphate buffer contained the purified enzyme, studied thiourea analogues, and a range of urea concentrations up to saturating 30 mM. Total progress curves were analyzed with the addition of the enzyme at the reaction start. Assays were terminated with the sequential addition of 100 μL of M1 ([…] sodium nitroprusside, 0.53 M phenol) and M2 (0.625 M sodium hydroxide, 47.1 mM sodium hypochlorite) solution to 50 μL of reaction mixture sample. After 15 min of color development, absorbance at 650 nm was measured. […] In order to verify the inhibition mode as well as calculate the dissociation constant for EI complex, Lineweaver–Burke curves were plotted (1/v = f(1/[S])). For noncompetitive or mixed inhibition mode, Ki was calculated from plots of the LB curves slope as a function of inhibitor concentration.
# [2] = test system: live cells of S. pasteurii CCM 2056; experiment: Whole-cell ureolysis: ammonia release from urea in live cells; assay type: cell-based, Sporosarcina pasteurii; settings: Sporosarcina pasteurii, CCM2056
# [3] = test system: live cells of P. mirabilis PCM 543; experiment: as above; assay type: cell-based, Proteus mirabilis; settings: Proteus mirabilis, urea hydrolysis in live cells; 30 mM urea; 10 mM PBS; read-out: IC50 [μM] (± SD) P. mirabilis cells
# Description: Proteus mirabilis PCM 543 was cultured as described for S. pasteurii except for nickel ions—0.3 mM NiCl2 was used in the growth medium. Cells harvested by centrifugation were resuspended in 10 mM PBS and used for urease activity measurements. Assays were conducted in 10 mM PBS containing 30 mM urea and different concentrations of urease inhibitors and ammonia quantified by indophenol assay.
# [4] = urea hydrolysis in live cells, 30 mM urea, 10 mM PBS, read-out: IC50 [μM] (± SD) S. pasteurii cells
# T1 sequence (P41022 whole entry): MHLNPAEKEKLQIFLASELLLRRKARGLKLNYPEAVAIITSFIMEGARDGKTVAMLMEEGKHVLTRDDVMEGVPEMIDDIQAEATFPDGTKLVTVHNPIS
# T1 sequence (P41021 whole entry, further chain): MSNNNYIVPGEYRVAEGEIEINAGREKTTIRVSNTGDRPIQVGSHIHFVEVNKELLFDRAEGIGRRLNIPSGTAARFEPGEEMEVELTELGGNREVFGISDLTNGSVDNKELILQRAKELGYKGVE
# T1 sequence (P41020 whole entry): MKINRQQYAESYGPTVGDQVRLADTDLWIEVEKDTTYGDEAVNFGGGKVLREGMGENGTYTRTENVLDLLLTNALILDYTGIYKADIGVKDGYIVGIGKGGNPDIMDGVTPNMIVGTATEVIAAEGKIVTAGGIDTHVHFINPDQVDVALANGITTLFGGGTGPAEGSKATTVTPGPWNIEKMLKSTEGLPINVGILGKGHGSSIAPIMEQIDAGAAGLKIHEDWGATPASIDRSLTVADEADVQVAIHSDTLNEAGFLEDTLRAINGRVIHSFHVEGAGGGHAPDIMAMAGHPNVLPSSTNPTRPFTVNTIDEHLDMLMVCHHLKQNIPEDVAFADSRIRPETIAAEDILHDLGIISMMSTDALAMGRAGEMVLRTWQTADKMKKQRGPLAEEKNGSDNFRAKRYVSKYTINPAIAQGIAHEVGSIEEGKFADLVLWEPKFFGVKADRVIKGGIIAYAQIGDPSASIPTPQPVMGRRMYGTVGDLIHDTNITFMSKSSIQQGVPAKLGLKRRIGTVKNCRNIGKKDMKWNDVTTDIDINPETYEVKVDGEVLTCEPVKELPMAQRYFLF
Compound,Ki ([1]; read-out: Ki [μM] (± SD)),"IC50 [2, 4] [µM]",IC50 [3] [µM],also measured
"NC(=S)N/N=C/c1ccccc1 [Compound 15, (E)-2-Benzylidenehydrazine-1-carbothioamide]",3.57 ± 0.182 µM,3.83 ± 0.282,347 ± 23.1,"IC50 ([2]; Gram-positive S. pasteurii cells, ureolysis inhibition, read-out: IC50 in S. pasteurii cells (unit inferred)): 3.8 ± 0.2 µM"
"Cc1ccc(/C=N/NC(N)=S)cc1 [Compound 16, (E)-2-(4-Methylbenzylidene)hydrazine-1-carbothioamide]",0.99 µM and 0.998 µM,9.92 ± 1.31,282 ± 32.4,α quantifier between ESI dissociation constant Ki* and EI dissociation constant Ki [1]: 38.04
"NC(=S)N/N=C/c1ccc(Cl)cc1 [Compound 17, (E)-2-(4-Chlorobenzylidene)hydrazine-1-carbothioamide]",8.15 ± 0.908 µM,16.4 ± 0.94,454 ± 26.3,
"COc1ccc(/C=N/NC(N)=S)cc1OC [Compound 18, (E)-2-(3,4-Dimethoxybenzylidene)hydrazine-1-carbothioamide]",37.5 ± 4.79 µM,,,
"C/C(=N\NC(N)=S)c1ccccc1 [Compound 19, (E)-2-(1-Phenylethylidene)hydrazine-1-carbothioamide]",0.39 µM and 0.391 µM,194 ± 12.5,568 ± 47.7,α quantifier between ESI dissociation constant Ki* and EI dissociation constant Ki [1]: 152.01
"C/C(=N\NC(N)=S)c1ccc(O)cc1 [Compound 20, (E)-2-(1-(4-Hydroxyphenyl)ethylidene)hydrazine-1-carbothioamide]",33.4 ± 2.61 µM,87.6 ± 9.07,513 ± 33.9,type (mode) of inhibition [1]: noncompetitive
"NC(=S)N/N=C(\C=C\c1ccccc1)c1ccccc1 [Compound 21, (E)-2-((E)-1,3-Diphenylallylidene)hydrazine-1-carbothioamide]",6.13 ± 0.714 µM,102 ± 8.4,519 ± 27.6,type (mode) of inhibition [1]: noncompetitive
"Cc1ccc(/C=C/C(=N\NC(N)=S)c2ccccc2)cc1 [Compound 22, (E)-2-((E)-1-Phenyl-3-(p-tolyl)allylidene)hydrazine-1-carbothioamide]",5.18 ± 0.691 µM,764 ± 50.3,1110 ± 126,
"NC(=S)N/N=C(\C=C\c1ccc(Cl)cc1)c1ccccc1 [Compound 23, (E)-2-((E)-3-(4-Chlorophenyl)-1-phenylallylidene)hydrazine-1-carbothioamide]",14.9 ± 2.01 µM,58.4 ± 3.21,430 ± 26.9,
"NC(=S)N/N=C(\C=C\c1ccc(F)cc1)c1ccccc1 [Compound 24, (E)-2-((E)-3-(4-Fluorophenyl)-1-phenylallylidene)hydrazine-1-carbothioamide]",24.2 ± 1.52 µM,36.2 ± 2.84,510 ± 17.8,
"NC(=S)N/N=C(\C=C\c1ccccc1)c1ccc(O)cc1 [Compound 25, (E)-2-((E)-1-(4-Hydroxyphenyl)-3-phenylallylidene)hydrazine-1-carbothioamide]",5.4 ± 0.327 µM,149 ± 8.7,763 ± 41.1,type (mode) of inhibition [1]: noncompetitive
"COc1ccc(C(/C=C/c2ccccc2)=N/NC(N)=S)c(OC)c1 [Compound 26, (E)-2-((E)-1-(2,4-Dimethoxyphenyl)-3-phenylallylidene)hydrazine-1-carbothioamide]",3.02 ± 0.23 µM,134 ± 11.4,,type (mode) of inhibition [1]: noncompetitive
"NNC(=S)N/N=C/c1ccccc1 [Compound 27, (E)-N′-Benzylidenehydrazinecarbothiohydrazide]",8.31 ± 0.438 µM,11.6 ± 0.65,544 ± 17.9,
"Cc1ccc(/C=N/NC(=S)NN)cc1 [Compound 28, (E)-N′-(4-Methylbenzylidene)hydrazinecarbothiohydrazide]",13.5 ± 3.16 µM,118 ± 7.7,664 ± 35.2,
"NNC(=S)N/N=C(\C=C\c1ccccc1)c1ccccc1 [Compound 29, N′-((1E,2E)-1,3-Diphenylallylidene)hydrazinecarbothiohydrazide]",2.24 µM,,,α quantifier between ESI dissociation constant Ki* and EI dissociation constant Ki [1]: 14.52
"Cc1ccc(/C=C/C(=N\NC(=S)NN)c2ccccc2)cc1 [Compound 30, N′-((1E,2E)-1-Phenyl-3-(p-tolyl)allylidene)hydrazinecarbothiohydrazide]",59.5 ± 4.4 µM,553 ± 27.8,,
"NNC(=S)N/N=C(\C=C\c1ccc(Cl)cc1)c1ccccc1 [Compound 31, N′-((1E,2E)-3-(4-Chlorophenyl)-1-phenylallylidene)hydrazinecarbothiohydrazide]",12.8 ± 1.54 µM,132 ± 6.9,,
"NC(=S)N1N=C(c2ccccc2)CC1c1ccccc1 (stereo not drawn) [Compound 32, 3,5-Diphenyl-4,5-dihydro-1H-pyrazole-1-carbothioamide]",71.7 ± 8.26 µM,,,
"Cc1ccc(C2CC(c3ccccc3)=NN2C(N)=S)cc1 (stereo not drawn) [Compound 33, 3-Phenyl-5-(p-tolyl)-4,5-dihydro-1H-pyrazole-1-carbothioamide]",87.1 ± 9.29 µM,,,
"NC(=S)N1N=C(c2ccccc2)CC1c1ccc(Cl)cc1 (stereo not drawn) [Compound 34, 5-(4-Chlorophenyl)-3-phenyl-4,5-dihydro-1H-pyrazole-1-carbothioamide]",30.5 ± 2.84 µM,,,
"NC(=S)N1N=C(c2ccccc2)CC1c1ccc(F)cc1 (stereo not drawn) [Compound 35, 5-(4-Fluorophenyl)-3-phenyl-4,5-dihydro-1H-pyrazole-1-carbothioamide]",46.5 ± 6.3 µM,,,
"COc1ccc(C2=NN(C(N)=S)C(c3ccccc3)C2)c(OC)c1 (stereo not drawn) [Compound 36, 3-(2,4-Dimethoxyphenyl)-5-phenyl-4,5-dihydro-1H-pyrazole-1-carbothioamide]",57.7 ± 4.42 µM,,,
"SC1=NC(c2ccccc2)=CC(c2ccccc2)N1 (stereo not drawn) [Compound 37, 4,6-Diphenyl-3,4-dihydropyrimidine-2(1H)-thione]",36.2 ± 5.2 µM,,,
"Cc1ccc(C2C=C(c3ccccc3)NC(=S)N2)cc1 (stereo not drawn) [Compound 38, 6-Phenyl-4-(p-tolyl)-3,4-dihydropyrimidine-2(1H)-thione]",27.4 ± 3.47 µM,,,
"S=C1NC(c2ccccc2)=CC(c2ccc(Cl)cc2)N1 (stereo not drawn) [Compound 39, 4-(4-Chlorophenyl)-6-phenyl-3,4-dihydropyrimidine-2(1H)-thione]",30.2 ± 4.23 µM,,,
"Fc1ccc(C2C=C(c3ccccc3)NC(=S)N2)cc1 (stereo not drawn) [Compound 40, 4-(4-Fluorophenyl)-6-phenyl-3,4-dihydropyrimidine-2(1H)-thione]",5.55 ± 0.873 µM,,,
"COc1ccc(C2=CC(c3ccccc3)NC(=S)N2)c(OC)c1 (stereo not drawn) [Compound 41, 6-(2,4-Dimethoxyphenyl)-4-phenyl-3,4-dihydropyrimidine-2(1H)-thione]",47.7 ± 6.31 µM,,,
"S=C(NCc1ccccc1)Nc1nc(-c2ccccc2)cs1 [Compound 49, 1-Benzyl-3-(4-phenylthiazol-2-yl)thiourea]",46 ± 3.71 µM,476 ± 26.1,554 ± 18.8,
"COc1ccc(-c2csc(NC(=S)NCc3ccccc3)n2)cc1 [Compound 50, 1-Benzyl-3-(4-(4-methoxyphenyl)thiazol-2-yl)thiourea]",41.4 ± 3.73 µM,,,
"COc1ccc(-c2csc(NC(=S)NCc3ccccc3)n2)c(OC)c1 [Compound 51, 1-Benzyl-3-(4-(2,4-dimethoxyphenyl)thiazol-2-yl)thiourea]",,326 ± 18.7,509 ± 31.6,Ki ([1]; Ki [μM] (± SD)): 22.2 ± 2.66 µM
